Experimental data published in patent US9445605B2, “Method for disinfection or infection control against a non-enveloped virus” (Hiroshima University, priority 2006, dated 2016).

Legend:
[1] = test system: Coxsackie virus group B, type 5; test: Coxsackie virus infectivity after reagent treatment (TCID50 in FL cells); assay type: cell-based
Experimental: The FL cells were infected with the virus, and a 50% infection dose (unit: 50% tissue culture infectious dose [TCID50]) was calculated.
To eliminate the influence of serum contained in original viruses, a virus solution was previously 50 times diluted with PBS.

[2] = test system: Adenovirus (nonproliferating, adenovirus type-5-derived); test: Adenovirus infectivity after reagent treatment (fluorescent staining of FL cells); assay type: cell-based
Experimental: Monolayer FL cells (cell line contaminated with HeLa cells (derived from human cervical cancer epithelial cells)) on the cover slip (9×28 mm) were washed with PBS one time and then infected with a 50 μL of virus solution. After adsorption for 1 hour, the cells were washed with PBS one time, and then a maintenance solution (the same as the diluent) was added, followed by culture.
Two days after, fluorescent staining was performed with anti-adenovirus antibody (monoclonal antibody: Chemicon MAB805) and Alexa Fluor 488-labeled anti-mouse IgG antibody (SantaCruz Biotechnology), and positive cells were counted in a field of view under a fluorescent microscope (400 times) (average of 20 fields of view was calculated).

[3] = test system: Feline calicivirus; test: Feline calicivirus infectivity after reagent treatment (TCID50 in CRFK cells); assay type: cell-based; settings: equal amounts of virus and reagent, 3 minutes at room temperature
Experimental: To eliminate the influence of serum contained in the original virus, a virus solution was previously 5 times diluted with a diluent (Eagle's minimum essential medium, penicillin G, streptomycin). Equal amounts (35 μL) of the diluted virus solution and each reagent were mixed and allowed to react at room temperature for 3 minutes. Then, a ten-fold dilution series was prepared using the diluent.
Monolayer CRFK cells on a 96-well plate were washed with PBS one time and then the diluted virus solution was inoculated (50 μl/well). After incubation with a CO2 incubator for adsorption and penetration of the virus for 1 hour, the cells were washed with PBS one time, and then a maintenance solution (the same as the diluent) was added (100 μL/well), followed by culture. Three days after, the cells were fixed and stained after extension of CPE, and a 50% infectious dose (unit: 50% tissue culture infectious dose [TCID50]) was calculated using a Behrens-Kaerber method to measure viral infectivity.

[4] = Measurement of pH of the reagents; assay type: physicochemical; settings: summary Table 9
From the text: Also, the experiment was repeated to confirm reproducibility.

[5] = test system: Rotavirus Wa Strain; test: Rotavirus infectivity after reagent treatment (fluorescent staining of MA104 cells); settings: equal amounts of virus and reagent, 3 minutes at room temperature; for Residual infectivity after treatment: MA104 cells
Experimental: Equal amounts (35 μL) of a virus solution and a reagent were mixed, followed by reaction at room temperature for 3 minutes. A 10-fold dilution series was formed using a diluent (MEM) and the MA104 cells on a cover slip (9×28 mm) were infected with 50 μL of the virus solution. After adsorption for 1 hour, the cells were washed with PBS one time and a growth medium (10% PBS-MEM) was added, followed by culture.
One day after, fluorescent staining was performed with anti-rotavirus antibody (monoclonal antibody: Abgene REMEI-1) and Alexa Fluor 488-labeled anti-mouse IgG antibody (SantaCruz Biotechnology), and positive cells were counted in a field of view under a fluorescent microscope (400 times) (average area of 20 fields of view). The number of positive cells per cover slip was calculated on the basis of the area of the field of view, and further infectivity per mL of virus solution was calculated (unit: CIU (cell infecting units)/ml; Kiyotani et al., Virology 177:65-74, 1990). When the number of positive cells was small, the positive cells were measured by observing the whole of the cover slip.

[6] = equal amounts of virus and reagent, 3 minutes at room temperature
[7] = equal amounts of virus and reagent, 3 minutes at room temperature, FL cells

CCO [50% (v/v) ethanol, ethanol]
Anti-Coxsackie virus activity (in words) [1]: no anti-Coxsackie virus activity | Effect (times) (to PBS) [1, 6]: 1 times | Infectivity ratio (to PBS) [1, 6]: 1.778 | Infectivity (TCID50/ml) [1, 7]: 3.2E+07 TCID50/ml | Inactivation activity for adenovirus (in words) [2]: no inactivation ability | Effect (times) (to PBS) [2, 6]: 4 times | Infectivity ratio (to PBS) [2, 6]: 0.2 | Residual infectivity after treatment [2, 7]: 7.7E+07 CIU/ml | Effect (times) (to PBS) [3]: 12 times | Infectivity ratio (to PBS) [3]: 0.09 | Infectivity (TCID50/ml) ([3]; CRFK cells): 3.2E+07 TCID50/ml | pH [4]: 5.09 | Infectivity ratio (to PBS) [5]: 0.06 | Residual infectivity after treatment [5]: 6.2E+05 CIU/ml

CCO [80% (v/v) ethanol, ethanol]
Infectivity ratio (to PBS) [5]: 0 | Residual infectivity after treatment [5]: 0 CIU/ml
